Assay results from patent US20050256034A1, “Dioxolane analogs for improved inter-cellular delivery” (priority 2000, published 2005).
Read-outs that look alike come from different tables or passages of the source. Each block holds one compound with its values, some of them ahead of it.

Assay: 3H-Thymidine Incorporation Assay (24 hr drug, wash, another 48 hr; 72 hr assay)
Type: cell-based
Conditions: for Factor (Resistance Factor = Ratio of dCK- on Wild-type CCRF-CEM) / Resistance Factor = Ratio of dCK- on Wild-type CCRF-CEM: ratio of IC50 CEM/dCK- to IC50 CCRF-CEM; for Factor (Resistance Factor = Ratio of dCK- on Wild-type CCRF-CEM): 24 h exposure; for IC50: 24 hr exposure to drug, wash, another 48 hr
[1] = CCRF-CEM, read-out: IC50 (3H-TdR incorporation at 72 hr) CCRF-CEM 24 h, CCRF-CEM T-cell leukemia
[2] = CCRF-CEM, read-out: IC50 (3H-TdR incorporation at 72 hr) CEM/dCK- 24 h, CEM/dCK- (CCRF-CEM deoxycytidine kinase-deficient)
[3] = MCF7, read-out: IC50 (3H-TdR incorporation at 72 hr) MCF-7 24 h, MCF-7 human breast carcinoma
[4] = NCI-H460, read-out: IC50 (3H-TdR incorporation at 72 hr) H-460 24 h, H-460 human lung carcinoma
[5] = SF-268, read-out: IC50 (3H-TdR incorporation at 72 hr) SF-268 24 h, SF-268 human central nervous system tumor
[6] = read-out: IC50 (3H-TdR incorporation at 72 hr) H-460 24 h, H-460 human lung carcinoma
[7] = read-out: IC50 (3H-TdR incorporation at 72 hr) MCF-7 24 h, MCF-7 human breast carcinoma

SMILES: CC(C)c1ccc(NC(=O)OC[C@H]2OC[C@@H](n3ccc(NC(=O)OCc4ccccc4)nc3=O)O2)cc1 [Compound 124, (1-[2-(4-ISOPROPYL-PHENYL- CARBAMOYLOXYMETHYL)-[1,3]DI- OXOLAN-4-YL]-2-OX- O-1,2-DIHYDRO-PYRI- MIDIN-4-YL}-CARBAMIC ACID BENZYL ESTER]
Factor (Resistance Factor = Ratio of dCK- on Wild-type CCRF-CEM): ˜2

SMILES: CC(C)(C)OC(=O)N(CCCCC(C)(C)C(=O)Nc1ccn([C@@H]2CO[C@H](CO)O2)c(=O)n1)Cc1ccccc1 [Compound 125, Benzyl-{5-[1-(2-hydroxy-methyl-[1,3]di-oxolan-4-yl)-2-ox-o-1,2-dihydro-pyri-midin-4-ylcarba-moyl]-5-methyl-hexyl}-carbamic acid tert-butyl ester]
Factor (Resistance Factor = Ratio of dCK- on Wild-type CCRF-CEM): 97

SMILES: COc1ccc(C(OC[C@H]2OC[C@@H](n3ccc(N)nc3=O)O2)(c2ccccc2)c2ccccc2)cc1 [Compound 134, 4-AMINO-1-{2-[(4-METH- OXY-PHENYL)-DI- PHENYL-METH- OXYMETHYL]-[1,3]DI- OXOLAN-4-YL}-1H-PYRI- MIDIN-2-ONE]
Factor (Resistance Factor = Ratio of dCK- on Wild-type CCRF-CEM): 3

SMILES: O=c1nc(NC2Sc3ccccc3S2)ccn1[C@@H]1CO[C@H](CO)O1 [Compound 136, 4-(BENZO[1,3]DITHIOL-2-YL- AMINO)-1-(2-HYDROXY- METHYL-[1,3]DI- OXOLAN-4-YL)-1H!PYRI- MIDIN-2-ONE]
Factor (Resistance Factor = Ratio of dCK- on Wild-type CCRF-CEM): >25

SMILES: COC(OC)(OC[C@H]1OC[C@@H](n2ccc(N)nc2=O)O1)c1ccccc1 [Compound 139, 4-AMINO-1-[2-(DI- METHOXY-PHENYL-METH- OXYMETHYL)-[1,3]DI- OXOLAN-4-YL]-1H-PYRI- MIDIN-2-ONE]
Factor (Resistance Factor = Ratio of dCK- on Wild-type CCRF-CEM): >250

SMILES: CN(Cc1ccccc1)C(=O)OC[C@H]1OC[C@@H](n2ccc(N)nc2=O)O1 [Compound 140, BENZYL-METHYL-CARBAMIC ACID 4-(4-AMINO-2-OXO-2H-PYRI- MIDIN-1-YL)-[1,3]DI- OXOLAN-2-YLMETHYL ESTER]
Factor (Resistance Factor = Ratio of dCK- on Wild-type CCRF-CEM): >9

SMILES: O=c1nc(NC2(c3ccccc3)c3ccccc3Oc3ccccc32)ccn1[C@@H]1CO[C@H](COC2(c3ccccc3)c3ccccc3Oc3ccccc32)O1 [Compound 144, 4-(9-PHENYL-9#H!-XAN- THEN-9-YLAMINO)-1-[2-(9-PHE- NYL-9#H!-XAN- THEN-9-YLOXYMETHYL)-[1,3]DI- OXOLAN-4-YL]-1#H!-PYRI- MIDIN-2-ONE]
Factor (Resistance Factor = Ratio of dCK- on Wild-type CCRF-CEM): 110

SMILES: Nc1ccn([C@@H]2CO[C@H](COC(=S)Oc3ccccc3)O2)c(=O)n1 [Compound 147, THIOCARBONIC ACID O-[4(S)-(4′-A- MINO-2′-OXO-2H-PYRI- MIDIN-1′-YL)-[1,3]DI- OXOLAN-2(S)-YL- METHYL]ESTER O-PHENYL ESTER]
Factor (Resistance Factor = Ratio of dCK- on Wild-type CCRF-CEM): >4 000

SMILES: CC(=O)OCC1OC2OC(C)(OC[C@H]3OC[C@@H](n4ccc(NC(=O)OCc5ccccc5)nc4=O)O3)OC2C(OC(C)=O)C1OC(C)=O (some centres unmarked) [Compound 148, Acetic acid 6-acetoxy-5-acetoxy-methyl-2-[4-(4-benzyl-oxycarbonylamino-2-ox-o-2H-pyrimidin-1-yl)-[1,3]di-oxolan-2-ylmeth-oxy]-2-methyl-tetra-hydro-[1,3]di-oxolo[4,5-b]py-ran-7-yl ester]
Factor (Resistance Factor = Ratio of dCK- on Wild-type CCRF-CEM): 4

SMILES: CC(C(=O)OC[C@H]1OC[C@@H](n2ccc(N)nc2=O)O1)C(c1ccccc1)c1ccccc1 (stereo partly drawn) [Compound 157, (2S,4S)-(3″-DIPHENYL-2″-METHYL- PROPIOXYMETHYL)-4-CYTO- SIN-1′-YL-1,3-DI- OXOLANE]
Factor (Resistance Factor = Ratio of dCK- on Wild-type CCRF-CEM): > 8330

IC50 [1]: 210 nM
IC50 [2]: > 100000 nM
IC50 [3]: 490 nM
IC50 [4]: 630 nM
IC50 [5]: 1000 nM
SMILES: CCOC(OCC)(OC[C@H]1OC[C@@H](n2ccc(N)nc2=O)O1)c1ccccc1 [Compound 170, 4-AMINO-1-[2-(DIETHOXY-PHE- NYL-METHOXYMETHYL)-[1,3]DI- OXOLAN-4-YL]-1H-PYRI- MIDIN-2-ONE]
Resistance Factor = Ratio of dCK- on Wild-type CCRF-CEM: >476

SMILES: COC(OC)(OC)OC[C@H]1OC[C@@H](n2ccc(N)nc2=O)O1 [Compound 177, 4-AMINO-1-(2-TRI- METHOXYMETHOXYMETHYL-[1,3]DI- OXOLAN-4-YL)-1H-PYRI- MIDIN-2-ONE]
Resistance Factor = Ratio of dCK- on Wild-type CCRF-CEM: > 1050

SMILES: O=C(Nc1ccn([C@@H]2CO[C@H](COC(=O)OCc3ccc([N+](=O)[O-])cc3)O2)c(=O)n1)OCc1ccc([N+](=O)[O-])cc1 [Compound 181, CARBONIC ACID 4-NITRO-BENZYL ESTER 4-[4-(4-NITRO-BENZYL- OXYCARBONYLAMINO)-2-OX- O-2H-PYRIMIDIN-1-YL]-[1,3]DI- OXOLAN-2-YLMETHYL ESTER]
IC50 [1]: 37 nM
IC50 [2]: > 100000 nM
IC50 [3]: 490 nM
IC50 [4]: 140 nM
IC50 [5]: 170 nM
Resistance Factor = Ratio of dCK- on Wild-type CCRF-CEM: >2700

SMILES: Nc1ccn([C@@H]2CO[C@H](COC(=O)c3ccc(Cl)c(Cl)c3)O2)c(=O)n1 [Compound 187, 3,4-DICHLORO-BENZOIC ACID 4-(4-AMINO-2-OXO-2H-PYRI- MIDIN-1-YL)-[1,3]DI- OXOLAN-2-YL METHYL ESTER]
IC50 [4]: 1.4 nM
IC50 (read-out: IC50 (3H-TdR incorporation at 72 hr) CCRF-CEM 24 h, CCRF-CEM T-cell leukemia): 1.6 nM
IC50 [6]: 1.1 nM
IC50 [7]: 5.1 nM

SMILES: Nc1ccn([C@@H]2CO[C@H](COC(=O)c3ccc(C(F)(F)F)cc3)O2)c(=O)n1 [Compound 189, 4-TRIFLUOROMETHYL-BENZOIC ACID 4-(4-A- MINO-2-OXO-2H-PYRI- MIDIN-1-YL)-[1,3]DI- OXOLAN-2-YL METHYL ESTER]
IC50 [3]: 3.3 nM
IC50 [4]: 1.2 nM
IC50 [6]: 0.68 nM
IC50 [7]: 3.7 nM

SMILES: Nc1ccn([C@@H]2CO[C@H](COC(=O)c3ccccc3F)O2)c(=O)n1 [Compound 190, 2-FLUORO-BENZOIC ACID 4-(4-AMINO-2-OXO-2H-PYRI- MIDIN-1-YL)-[1,3]DI- OXOLAN-2-YL METHYL ESTER]
IC50 [2]: 9800 nM
IC50 [3]: 27 nM
IC50 [6]: 3.9 nM
IC50 [7]: 16 nM

SMILES: CC(C)(C)OC(=O)NCCCCCC(=O)Nc1ccn([C@@H]2CO[C@H](CO)O2)c(=O)n1 [Compound 193, {5-[1-(2-HYDROXYMETHYL-[1,3]DI- OXOLAN-4-YL)-2-OX- O-1,2-DIHYDRO-PYRI- MIDIN-4-YLCARBA- MOYL]-PENTYL}-CARBAMIC ACID TERT-BUTYL ESTER]
Resistance Factor = Ratio of dCK- on Wild-type CCRF-CEM: > 1700

SMILES: COc1ccc(C(OC)(OC)OC[C@H]2OC[C@@H](n3ccc(N)nc3=O)O2)cc1 [Compound 195, 4-AMINO-1-{2-[DI- METHOXY-(4-METHOXY-PHE- NYL)-METHOXYMETHYL]-[1,3]DI- OXOLAN-4-YL}-1#H!-PYRI- MIDIN-2-ONE]
Resistance Factor = Ratio of dCK- on Wild-type CCRF-CEM: > 1560

SMILES: CCOC(OCC)(OCC)OC[C@H]1OC[C@@H](n2ccc(N)nc2=O)O1 [Compound 199, 4-Amino-1-(2-tri-ethoxymethoxymethyl-[1,3]di-oxolan-4-yl)-1H-pyri-midin-2-one]
Resistance Factor = Ratio of dCK- on Wild-type CCRF-CEM: > 10600

SMILES: CC(=O)Oc1ccc(COC(=O)Nc2ccn([C@@H]3CO[C@H](COC(=O)OCc4ccc(OC(C)=O)cc4)O3)c(=O)n2)cc1 [Compound 202, Acetic acid 4-(1-{2-[4-(Acetyloxy)benzyloxycarbonyloxymethyl]-[1,3]dioxolan-4-yl}2-oxo-1,2-dihydropyrimidin-4-ylcarbamoyloxymethyl)-phenyl ester]
Resistance Factor = Ratio of dCK- on Wild-type CCRF-CEM: > 1000

SMILES: Nc1ccn([C@@H]2CO[C@H](COC(=O)c3ccc([N+](=O)[O-])cc3)O2)c(=O)n1 [Compound 204, 4-NITRO-BENZOIC ACID 4-(4-A- MINO-2-OXO-2H-PYRI- MIDIN-1-YL)-[1,3]DI- OXOLAN-2-YL METHYL ESTER]
IC50 [1]: 12 nM
IC50 [2]: 19000 nM
IC50 [3]: 8.6 nM
IC50 [4]: 15 nM
IC50 [5]: 25 nM
Resistance Factor = Ratio of dCK- on Wild-type CCRF-CEM: 1 600

SMILES: Nc1ccn([C@@H]2CO[C@H](COC(=O)c3ccccc3Cc3ccccc3)O2)c(=O)n1 [Compound 220, BIPHENYL-2-CARBOXYLIC ACID 4-(4-AMINO-2-OXO-2H-PYRI- MIDIN-1-YL)-[1,3]DI- OXOLAN-2-YL METHYL ESTER]
Resistance Factor = Ratio of dCK- on Wild-type CCRF-CEM: > 28600

SMILES: Nc1ccn([C@@H]2CO[C@H](COC(=O)C3(c4ccccc4)CC3)O2)c(=O)n1 [Compound 223, 1-PHENYL-CYCLO- PROPANECARBOXYLIC ACID 4-(4-AMINO-2-OXO-2H-PYRI- MIDIN-1-YL)-[1,3]DI- OXOLAN-2-YL METHYL ESTER]
Resistance Factor = Ratio of dCK- on Wild-type CCRF-CEM: > 1610

IC50 [1]: 100 nM
IC50 [3]: 6900 nM
IC50 [4]: 5300 nM
IC50 [5]: 21000 nM
SMILES: CC(C)(C(=O)OC[C@H]1OC[C@@H](n2ccc(N)nc2=O)O1)c1ccccc1[N+](=O)[O-].Cl [Compound 224, 2-METHYL-2-(2-NITRO-PHE- NYL)-PROPIONIC ACID 4-(4-AMINO-2-OXO-2H-PYRI- MIDIN-1-YL)-[1,3]DI- OXOLAN-2-YLMETHYL ESTER HYDROCHLORIDE SALT]
Resistance Factor = Ratio of dCK- on Wild-type CCRF-CEM: > 1000

SMILES: CCCCC[C@H]1CC[C@H](C(=O)OC[C@H]2OC[C@@H](n3ccc(N)nc3=O)O2)CC1 [Compound 240, 4-PENTYL-CYCLO- HEXANECARBOXYLIC ACID 4-(4-AMINO-2-OXO-2H-PYRI- MIDIN-1-YL)-[1,3]DI- OXOLAN-2-YL METHYL ESTER]
Resistance Factor = Ratio of dCK- on Wild-type CCRF-CEM: ≧25 000
